{"source": "patent US8916376B2", "about": "“Metal-binding peptides” (priority 2007, dated 2014)", "key": {"E. coli BLR(DE3) cells [1]": {"system": "E. coli BLR(DE3) cells", "assay": "Multi-step selection of E. coli clone library under toxic agents; apparent MIC", "assay_type": "cell-based", "settings": "for concentration above which no bacterial growth was observed: 24 hours selection cycle, FIG. 2", "excerpt": "The pCRRL1 library was transformed into E. coli BLR(DE3) cells, which carry a T7 RNA polymerase gene under control of IPTG-regulated lacUV5 promoter. The number of individual clones was estimated to be ˜10^5. The clone library was allowed to grow for 4 hrs in order to obtain several replicates of it, and then split into parts intended for parallel evolution experiments using different toxic agents. Expression of the randomized ORF was induced by IPTG, and the multi-step selection experiment was started by adding appropriate amounts of NiCl2, AgNO3, or K2TeO3 to the cell cultures, as shown in FIG. 2 with the selection of the E. coli clones resistant to NiCl2 (a), AgNO3 (b), and K2TeO3 (c). Large filled circles represent bacterial cultures successfully growing at indicated concentrations of each toxic agent. […] Black arrows point to the most resistant bacterial cultures, from which individual clones have been isolated for further studies of their toxicity tolerance. Grey arrow marks the culture, which was used as a non-adapted control in tests of the bacterial resistance towards nickel, silver, and tellurite. […] A concentration gradient of the toxic agents was chosen to cover a range within which an MIC was expected to be found. Thus, at every step the selective pressure was adjusted depending on the achieved level of the toxicity tolerance to keep the evolving bacterial populations under subinhibitory conditions. Substantial increase in bacterial resistance to Ni^2+, Ag^+, and TeO3^2− was observed during four, five, and seven consecutive selection cycles, respectively. After that, no further change in toxicity tolerance was detected. During the selection procedure, the apparent MIC values increased from 4 to 10 mM NiCl2, from 0.03 to 0.90 mM AgNO3, and from 0.7 to 20 μM K2TeO3. Eight clones were isolated from each of the three evolved resistant populations by plating. These were tested for the dependence of growth on mini-gene expression by measuring OD600 after 24 hrs of cultivation in the presence of corresponding toxic agent, with and without IPTG. […] All eight Ni^2+-resistant clones harbored the same plasmid (designated as pCRRL1-N94-01) with a mini-gene variant coding for the peptide […] (SEQ ID NO 1), a structural model of which is shown in FIG. 2a. In addition, a 9-bp deletion was detected in the spacer region between the ORF and the transcription terminator. However, since no important element of the mini-gene operon was located there, the deletion was unlikely to affect the peptide expression. […] All TeO3^2−-resistant clones carried a version of plasmid pCRRL1-T507-01 that has a 225-bp deletion of the whole mini-gene transcriptional unit together with adjacent downstream sequence. This deletion obviously abolishes T7 RNA polymerase activity on the plasmid, making it irresponsive to IPTG induction."}, "E. coli BLR(DE3) cells [2]": {"system": "E. coli BLR(DE3) cells", "assay": "Dependence of growth under toxic agent on mini-gene expression (OD600, with and without IPTG)", "assay_type": "cell-based", "settings": "for effect of IPTG-induced mini-gene expression on growth (OD600): resistant clones carrying the mini-gene, 24 hrs cultivation with the corresponding toxic agent, with and without IPTG", "excerpt": "The pCRRL1 library was transformed into E. coli BLR(DE3) cells, which carry a T7 RNA polymerase gene under control of IPTG-regulated lacUV5 promoter. The number of individual clones was estimated to be ˜10^5. The clone library was allowed to grow for 4 hrs in order to obtain several replicates of it, and then split into parts intended for parallel evolution experiments using different toxic agents. Expression of the randomized ORF was induced by IPTG, and the multi-step selection experiment was started by adding appropriate amounts of NiCl2, AgNO3, or K2TeO3 to the cell cultures, as shown in FIG. 2 with the selection of the E. coli clones resistant to NiCl2 (a), AgNO3 (b), and K2TeO3 (c). Large filled circles represent bacterial cultures successfully growing at indicated concentrations of each toxic agent. […] Black arrows point to the most resistant bacterial cultures, from which individual clones have been isolated for further studies of their toxicity tolerance. Grey arrow marks the culture, which was used as a non-adapted control in tests of the bacterial resistance towards nickel, silver, and tellurite. […] A concentration gradient of the toxic agents was chosen to cover a range within which an MIC was expected to be found. […] After that, no further change in toxicity tolerance was detected. […] In addition, a 9-bp deletion was detected in the spacer region between the ORF and the transcription terminator. […]\nThe existence of a positive correlation between the level of mini-gene expression and the extent of toxicity tolerance would strongly argue in favor of a role for the mini-gene in the mechanism of stress resistance of the evolved clones. […] Comparison of the bacterial growth parameters measured in the presence and absence of IPTG made it possible to distinguish the specific effect of mini-gene expression on culture survival and propagation from the basal resistance to the hostile environment acquired through adaptive genomic mutations. […]"}, "[3]": {"settings": "E. coli BLR(DE3) pCRRL1 library, start of the selection procedure"}, "[4]": {"settings": "evolved resistant population, end of the selection procedure"}}, "data": [{"compound": "O=[N+]([O-])[O-].[Ag+]", "note": "[AgNO3]", "values": [{"measurement": "concentration above which no bacterial growth was observed", "setting": "E. coli BLR(DE3) cells [1]", "result": "above 0.9 mM"}, {"measurement": "apparent MIC", "setting": "E. coli BLR(DE3) cells [1]; [3]", "result": 30, "unit": "µM"}, {"measurement": "apparent MIC", "setting": "E. coli BLR(DE3) cells [1]; [4]", "result": 900, "unit": "µM"}]}, {"compound": "O=[Te]([O-])[O-].[K+].[K+]", "note": "[K2TeO3]", "values": [{"measurement": "concentration above which no bacterial growth was observed", "setting": "E. coli BLR(DE3) cells [1]", "result": "above 18 mM"}, {"measurement": "apparent MIC", "setting": "E. coli BLR(DE3) cells [1]; [3]", "result": 0.7, "unit": "µM"}, {"measurement": "apparent MIC", "setting": "E. coli BLR(DE3) cells [1]; [4]", "result": 20, "unit": "µM"}]}, {"compound": "[Cl][Ni][Cl]", "note": "[NiCl2]", "values": [{"measurement": "apparent MIC", "setting": "E. coli BLR(DE3) cells [1]; [3]", "result": 4000, "unit": "µM"}, {"measurement": "apparent MIC", "setting": "E. coli BLR(DE3) cells [1]; [4]", "result": 10000, "unit": "µM"}, {"measurement": "concentration at which culture was able to grow", "setting": "E. coli BLR(DE3) cells [2]; non-adapted control culture, insensitive to IPTG", "result": "below 4 mM"}]}, {"compound": "MSHATATPASRRRLPLRS [SEQ ID NO 2, 18-mer peptide encoded by the mini-gene of plasmid pCRRL1-A226-01 in Ag+-resistant E. coli clones]", "values": [{"measurement": "effect of IPTG-induced mini-gene expression on growth (OD600)", "setting": "E. coli BLR(DE3) cells [2]", "result": "not affected by IPTG"}]}, {"compound": "MSHAYFVCNRCDSSNHSAHE [SEQ ID NO 1, 20-mer peptide encoded by the mini-gene of plasmid pCRRL1-N94-01 in Ni2+-resistant E. coli clones]", "values": [{"measurement": "effect of IPTG-induced mini-gene expression on growth (OD600)", "setting": "E. coli BLR(DE3) cells [2]", "result": "Significant IPTG-induced growth improvement"}]}]}
